The values that follow come from PMC3177827 (PLoS ONE, 2011).

“Also recorded” adds a separate entry of the source. The star is where a group is joined. pNA = O=[N+]([O-])c1ccc(N*)cc1; Cbz = O=C(OCc1ccccc1)*

The nature of data set [1]: mixed human dental plaque bacteria. The conditions noted are these: cited from earlier work.
Data set [2] can be described thus: bacterial suspension in saliva ion buffer (OD620 1.2). The conditions noted are these: up to 24 h.
The nature of data set [3]: Whole plaque (Mixture of bacteria) suspension in saliva ion buffer. The conditions noted are these: human, up to 24 h.
Data set [4] can be described thus: WSA-8 (Rothia aeria HOT-188) bacterial suspension in saliva ion buffer. The conditions noted are these: up to 24 h.
Data set [5] in a line: WSA-26 (Rothia mucilaginosa HOT-681) bacterial suspension in saliva ion buffer. To be noted: up to 24 h.
Data set [6] can be described thus: WSA-2B (Rothia mucilaginosa HOT-681) bacterial suspension in saliva ion buffer. The conditions noted are these: up to 24 h.
Data set [7] in a line: WSA-7A (Streptococcus mitis HOT-677) bacterial suspension in saliva ion buffer. The conditions noted are these: up to 24 h.
A short description of data set [8]: WSAN-25 (Veilonella atypica HOT-524) bacterial suspension in saliva ion buffer. The conditions noted are these: up to 24 h.
Data set [9] can be described thus: PAN-5 (Bifidobacterium dentium HOT-588) bacterial suspension in saliva ion buffer. The conditions noted are these: up to 24 h.
Data set [10] in a line: PAN-8 (Bifidobacterium dentium HOT-588) bacterial suspension in saliva ion buffer. To be noted: up to 24 h.
Data set [11] can be described thus: PAN-0 (Streptococcus pneumoniae HOT-734) bacterial suspension in saliva ion buffer. To be noted: up to 24 h.
Data set [12] can be described thus: PAN-18 (Bifidobacterium dentium HOT-588) bacterial suspension in saliva ion buffer. The conditions noted are these: up to 24 h.
Data set [13] is described as follows: PAN-19 (Bifidobacterium dentium HOT-588) bacterial suspension in saliva ion buffer. To be noted: up to 24 h.
The nature of data set [14]: PAN-23 (Bifidobacterium dentium HOT-588) bacterial suspension in saliva ion buffer. To be noted: up to 24 h.
A short description of data set [15]: WSAN-14 (Bifidobacterium longum HOT-B54) bacterial suspension in saliva ion buffer. To be noted: up to 24 h.
Data set [16] in a line: WSAN-16 (Bifidobacterium longum HOT-B54) bacterial suspension in saliva ion buffer. To be noted: up to 24 h.
The nature of data set [17]: WSAN-24 (Bifidobacterium longum HOT-B54) bacterial suspension in saliva ion buffer. The conditions noted are these: up to 24 h.
The nature of data set [18]: WSA-10 (Staphylococcus epidermidis HOT-601) bacterial suspension in saliva ion buffer. The conditions noted are these: up to 24 h.
The next data set can be described thus: mammalian enzymes. To be noted: cited from earlier work.
A further data set relates to pepsin. Description: pepsin (1 µg/ml in 0.1 M HCl, pH 1.0). To be noted: up to 24 h.
In a further data set the test system is trypsin. Description: trypsin (1 µg/ml in 50 mM ammonium bicarbonate, pH 8.0). The conditions noted are these: up to 24 h.
Data set [19] is described as follows: strain WSA-8 (R. aeria) in saliva ion buffer (OD620 1.2, pH 7.0). To be noted: Rothia aeria, up to 5 h.
Another data set concerns chymotrypsin. The experiment in a line: chymotrypsin (1 µg/ml in 50 mM ammonium bicarbonate, pH 8.0). The conditions noted are these: up to 24 h.
[20] abbreviates: Bifidobacterium dentium HOT-588 (strain PAN-5).
Setting [21] is: Bifidobacterium dentium HOT-588 (strain PAN-8).
Where [22] appears, read: Bifidobacterium dentium HOT-588 (strain PAN-18).
Where [23] appears, read: Bifidobacterium dentium HOT-588 (strain PAN-19).
The mark [24] stands for this setting: Bifidobacterium dentium HOT-588 (strain PAN-23).
Setting [25] is: Bifidobacterium longum HOT-B54 (strain WSAN-14).
Where [26] appears, read: Bifidobacterium longum HOT-B54 (strain WSAN-16).
The mark [27] stands for this setting: Bifidobacterium longum HOT-B54 (strain WSAN-24).
Setting [28] is: Rothia aeria HOT-188 (strain WSA-8).
Where [29] appears, read: Rothia mucilaginosa HOT-681 (strain WSA-2B).
Where [30] appears, read: Rothia mucilaginosa HOT-681 (strain WSA-26).
The mark [31] stands for this setting: Staphylococcus epidermidis HOT-601 (strain WSA-10).
[32] abbreviates: Streptococcus mitis HOT-677 (strain WSA-7A).
Where [33] appears, read: Streptococcus pneumoniae HOT-734 (strain PAN-0).
[34] abbreviates: Veilonella atypica HOT-524 (strain WSAN-25).

Regarding Cbz-Gln-Gln-Pro-pNA, the cleaved bond result in data set [1] and in data set [3] was “P-pNA” in each case. Moreover, the not cleaved result in data set [2] (setting [20]), in data set [2] (setting [21]), in [2] (setting [22]), in data set [2] (setting [23]), in [2] (setting [24]) and in data set [2] (setting [25]) was “− after 24 h” each time. The not cleaved result in data set [2] (setting [26]) was “− after 24 h”; in [2] (setting [27]) it was “− after 24 h”; in data set [2] (setting [28]), “− (not cleaved) after 24 h”; in data set [2] (setting [29]) it was “− (not cleaved) after 24 h”; in data set [2] (setting [30]) it was “− (not cleaved) after 24 h”; in data set [2] (setting [31]), “− after 24 h”. Also, the not cleaved entry in [2] (setting [32]) is listed as “− after 24 h”; in data set [2] (setting [33]), “− after 24 h”; in data set [2] (setting [34]) it was “− after 24 h”; in data set [4], “− after 24 h incubation”; in data set [5] it was “− after 24 h incubation”; in data set [6], “− after 24 h incubation”. In addition, the not cleaved result in data set [7], in data set [8], in data set [9], in data set [10], in [11] and in data set [12] was “− after 24 h incubation” each time. The not cleaved result in [13], in [14], in data set [15], in data set [16], in [17] and in data set [18] was “− after 24 h incubation” throughout.
As for Cbz-Lys-Pro-Gln-pNA, the cleaved bond entry in data set [4] and in data set [6] was “Q-pNA” throughout.
Turning to Cbz-Pro-Phe-Pro-pNA, the cleaved bond entry in [1] and in data set [3] was “P-pNA” throughout. Moreover, the not cleaved entry in data set [2] (setting [20]), in data set [2] (setting [21]), in data set [2] (setting [22]), in data set [2] (setting [23]), in data set [2] (setting [24]) and in data set [2] (setting [25]) was “− after 24 h” throughout. In addition, the not cleaved result is “− after 24 h” in data set [2] (setting [26]); “− after 24 h” in [2] (setting [27]); “− (not cleaved) after 24 h” in data set [2] (setting [28]); “− (not cleaved) after 24 h” in data set [2] (setting [29]); “− (not cleaved) after 24 h” in data set [2] (setting [30]); “− after 24 h” in [2] (setting [31]). For the same substance, the not cleaved entry in data set [2] (setting [32]) is “− after 24 h”; in data set [2] (setting [33]) it was “− after 24 h”; in [2] (setting [34]), “− after 24 h”; in [4], “− after 24 h incubation”; in data set [5] it was “− after 24 h incubation”; in data set [6], “− after 24 h incubation”. Moreover, the not cleaved result in [7], in [8], in data set [9], in data set [10], in data set [11] and in data set [12] was “− after 24 h incubation” in each case. In addition, the not cleaved entry in data set [13], in [14], in [15], in data set [16], in [17] and in data set [18] was “− after 24 h incubation” throughout.
Consider Cbz-Pro-Pro-Phe-pNA, for which the cleaved bond entry in [1] and in [3] was “F-pNA” throughout. The not cleaved entry in [2] (setting [20]), in [2] (setting [21]), in data set [2] (setting [22]), in data set [2] (setting [23]), in data set [2] (setting [24]) and in [2] (setting [25]) was “− after 24 h” each time. Further, the not cleaved result in data set [2] (setting [26]) is recorded as “− after 24 h”; in [2] (setting [27]), “− after 24 h”; in data set [2] (setting [28]), “− (not cleaved) after 24 h”; in [2] (setting [29]), “− (not cleaved) after 24 h”; in data set [2] (setting [30]), “− (not cleaved) after 24 h”; in [2] (setting [31]), “− after 24 h”. Moreover, the not cleaved entry in [2] (setting [32]) was “− after 24 h”; in [2] (setting [33]) it was “− after 24 h”; in data set [2] (setting [34]), “− after 24 h”; in [4] it was “− after 24 h incubation”; in [5] it was “− after 24 h incubation”; in data set [6], “− after 24 h incubation”. The not cleaved entry in data set [7], in data set [8], in data set [9], in data set [10], in data set [11] and in data set [12] was “− after 24 h incubation” each time. The not cleaved result in data set [13], in data set [14], in data set [15], in data set [16], in data set [17] and in [18] was “− after 24 h incubation” throughout.
For the substance FLQPQQPFPQQPQQPYPQQPQQPFPQ, the not cleaved entry in the data set “mammalian enzymes” was “resistant to degradation by mammalian enzymes”; in the data set with pepsin it was “resistant to degradation; sampled at t = 24 h”; in the data set on trypsin it was “resistant to degradation; sampled at t = 24 h”; in the data set with chymotrypsin it was “resistant to degradation; sampled at t = 24 h”. Besides, the cleaved bond result in [19] is recorded as “Y-P, major”.
Consider LQLQPFPQPQLPYPQPQLPYPQPQLPYPQPQPF, for which the not cleaved result in “mammalian enzymes” is on record as “resistant to degradation by mammalian enzymes”; in the data set with pepsin, “resistant to degradation; sampled at t = 24 h”; in the data set with trypsin, “resistant to degradation; sampled at t = 24 h”; with chymotrypsin it was “resistant to degradation; sampled at t = 24 h”. Besides, in data set [19], the cleaved bond entry is reported as “F-P, minor; also recorded: P-Q, minor; also recorded: Q-L, major; also recorded: Y-P, major; also recorded: Q-P, major”.
benzyloxycarbonyl-YPQ-paranitroanilide: the cleaved bond result in data set [1], in data set [3], in data set [4], in data set [5], in [6] and in data set [7] was “Q-pNA” each time.
